Test results: US11261201B2 (priority 2018, dated 2022)
In brackets after ≈: the same amount, converted by molar mass. Where a name gives a salt, the structure may show the parent alone. Read-outs that look alike come from different tables or passages of the source.

Tests used:
H37RvMA = test: Tuberculosis Alamar Blue/Resazurin assay (MIC); format: cell-based; conditions: read-out: WT H37Rv MTB Activity
A. baumannii = test: Gram negative MIC protocol (OD600, LB, 24 h); conditions: for MIC: Acinetobacter baumannii
Method: (§1) Overnight bacterial cultures were grown in LB with no added antibiotics at 37° C. with shaking. A 1:1000 dilution of these cultures into LB was exposed to concentration gradients of compounds in 96-well plates (100 μL per well assay volume). Resulting plates were incubated at 37° C. for 24 h without shaking, and OD600 was measured at the end of the incubation. MICs were determined as the lowest concentrations at which OD600 remained at baseline.

E. coli = test: Gram negative MIC protocol (OD600, LB, 24 h); conditions: for MIC: Escherichia coli
Method: as §1

[1] = Mycobacterium tuberculosis, H37RV, WT H37Rv MTB
[2] = read-out: MIC A. baumannii LB Media, A. baumannii, LB media, 24 h, OD600
[3] = read-out: MIC E. coli delta-TolC LB Media, E. coli delta-TolC, LB media, OD600
[4] = read-out: MIC WT E. coli LB Media, WT E. coli, LB media, OD600
[5] = read-out: MIC E. coli delta-TolC LB Media, E. coli delta-TolC strain, LB media, 24 h, OD600
[6] = read-out: MIC WT E. coli LB Media, wild-type E. coli, LB media, 24 h, OD600
[7] = Mycobacterium tuberculosis, H37RV
[8] = read-out: MIC A. baumannii LB Media

Row | SMILES | MIC (H37RvMA; [1]) [µM] | MIC (A. baumannii; [2]) [µM] | MIC (E. coli; [3]) [µM] | MIC (E. coli; [4]) [µM] | MIC (E. coli; [5]) [µM] | MIC (E. coli; [6]) [µM] | further results
1 | CC(NCc1ccccc1)C1CCCCCC1 (stereo not shown) [B101] | > 150 | 150 (≈ 34.7 µg/mL) | 40 (≈ 9.26 µg/mL) | 70 (≈ 16.2 µg/mL) | – | – | –
2 | CC(CC1CCCCC1)NCc1ccccc1OC1CC2CC1C1CCCC21 (stereo not shown) [B393, 1-cyclohexyl-N-(2-((octahydro-1H-4,7-methanoinden-5-yl)oxy)benzyl)propan-2-amine] | 20.2 (≈ 7.71 µg/mL) | 150 (≈ 57.2 µg/mL) | – | – | 7 (≈ 2.67 µg/mL) | > 150 | –
3 | COC(=O)Cn1ccc2cccc(CNC(C)CC3CCCCC3)c21 (stereo not shown) [B435, methyl 2-(7-(((1-cyclohexylpropan-2-yl)amino)methyl)-1H-indol-1-yl)acetate hydrochloride] | > 150 | > 150 | 150 | > 150 | – | – | –
4 | OC1CCCCC1CCNCc1ccccc1 (stereo not shown) [B189] | > 150 | > 300 | > 300 | > 300 | – | – | –
5 | CC1CCCC(CCNCc2ccccc2)C1 (stereo not shown) [B179] | 150 (≈ 34.7 µg/mL) | > 300 | 230 (≈ 53.2 µg/mL) | > 300 | – | – | –
6 | CC(CC1CCCCC1)NCc1ccccc1OCC(=O)N(C)C (stereo not shown) [B320] | > 150 | > 150 | – | – | 20 (≈ 6.65 µg/mL) | > 150 | –
7 | CC(CC1CCCCC1)NCc1ccccc1OCc1cccc(F)c1 (stereo not shown) [B383] | 12.2 (≈ 4.34 µg/mL) | 91 (≈ 32.4 µg/mL) | – | – | 2 (≈ 0.711 µg/mL) | 55 (≈ 19.6 µg/mL) | –
8 | CC(C)CCNCc1ccccc1 [B2] | > 150 | > 150 | > 150 | > 150 | – | – | –
9 | C1=CC2CCC1CC2CNCc1ccccc1 (stereo not shown) [B122] | 150 (≈ 34.1 µg/mL) | > 150 | > 150 | > 150 | – | – | –
10 | COc1ccc(CC(C)(C)NCc2ccccc2)cc1 [B50] | – | – | > 150 | > 150 | – | – | MIC (H37RvMA; [7]): > 150 µM; MIC (A. baumannii; [8]): > 150 µM
11 | COc1ccc2c(c1)CCCC2CNCc1ccccc1 (stereo not shown) [B112] | > 150 | > 150 | > 150 | > 150 | – | – | –
12 | CC(O)CCOc1ccccc1CNC(C)CC1CCCCC1 (stereo not shown) [B363] | > 150 | 150 (≈ 47.9 µg/mL) | – | – | 3 (≈ 0.958 µg/mL) | 150 (≈ 47.9 µg/mL) | –
13 | CC(Cc1ccc2ccccc2c1)NCc1ccccc1 (stereo not shown) [B194] | – | – | – | – | – | – | MIC (H37RvMA): 150 µM (≈ 41.3 µg/mL); MIC A. baumannii LB Media (A. baumannii; A. baumannii, LB media, OD600): 300 µM (≈ 82.6 µg/mL); MIC E. coli delta-TolC LB Media (E. coli; E. coli delta-TolC, LB media, OD600): 170 µM (≈ 46.8 µg/mL); MIC WT E. coli LB Media (E. coli; WT E. coli, LB media, OD600): >300 µM
14 | FC(F)(F)c1ccccc1CNCCC1CCCCC1 [B225, 2-cyclohexyl-N-(2-(trifluoromethyl)benzyl)ethanamine hydrochloride] | > 150 | 300 | – | – | > 150 | > 300 | –
15 | CC(CNCc1ccccc1)N1CCc2ccccc2C1 (stereo not shown) [B130] | > 150 | > 150 | > 150 | > 150 | – | – | –
16 | CC1(C)[C@@H]2C[C@](C)(CNCc3ccccc3)C[C@@H]21 [B88] | > 150 | > 150 | > 150 | > 150 | – | – | –
17 | CC(Cc1cccc(C(F)(F)F)c1)NCc1ccccc1 (stereo not shown) [B81] | – | – | > 150 | > 150 | – | – | MIC (H37RvMA; [7]): > 150 µM; MIC (A. baumannii; [8]): > 150 µM
18 | CC(CC1CCCCC1)NCc1ccccc1CCCO (stereo not shown) [B378, 3-(2-((1-cyclohexylpropan-2-ylamino)methyl)phenyl)propan-1-ol] | 150 (≈ 43.4 µg/mL) | 150 (≈ 43.4 µg/mL) | – | – | 7 (≈ 2.03 µg/mL) | 91 (≈ 26.3 µg/mL) | –
19 | CC1CCC(Oc2ccccc2CNC(C)CC2CCCCC2)CC1 (stereo not shown) [B394, 1-cyclohexyl-N-(2-((4-methylcyclohexyl)oxy)benzyl)propan-2-amine] | 20.2 (≈ 6.94 µg/mL) | 55 (≈ 18.9 µg/mL) | – | – | 3 (≈ 1.03 µg/mL) | 150 (≈ 51.5 µg/mL) | –
20 | Fc1ccc2c(c1)[C@@H](NCc1ccccc1)CC2 [B208, hydrochloride] | > 150 | > 300 | – | – | > 300 | > 300 | –

Row | SMILES | MIC (H37RvMA; [1]) [µM] | MIC (A. baumannii; [2]) [µM] | MIC (E. coli; [3]) [µM] | MIC (E. coli; [4]) [µM] | MIC (E. coli; [5]) [µM] | MIC (E. coli; [6]) [µM] | further results
21 | c1ccc(CNCCC2CCC2)cc1 [B30] | > 150 | > 150 | > 150 | > 150 | – | – | –
22 | C#CCNC(=O)COc1ccccc1CNC(C)CC1CCCCC1 (stereo not shown) [B359] | > 150 | 150 (≈ 51.4 µg/mL) | – | – | 12 (≈ 4.11 µg/mL) | > 150 | –
23 | O=C1OC(COc2ccccc2CNCCC2=CCCCC2)CN1C1CC1 (stereo not shown) [B370] | > 150 | > 150 | – | – | 12 (≈ 4.45 µg/mL) | > 150 | –
24 | c1ccc(OCC2CCOCC2)c(CNCCC2CCCCC2)c1 [B331, 2-cyclohexyl-N-(2-((tetrahydro-2H-pyran-4-yl)methoxy)benzyl)ethanamine] | > 150 | > 150 | – | – | 33 (≈ 10.9 µg/mL) | > 150 | –
25 | C1=C(CCNCCc2ccccc2)CCCC1 [B151] | – | > 150 | > 150 | > 150 | – | – | MIC (H37RvMA; [7]): > 150 µM
26 | CC(CC1CCCCC1)NCc1ccccc1OCc1ccncc1 (stereo not shown) [B283] | 150 (≈ 50.8 µg/mL) | 91 (≈ 30.8 µg/mL) | – | – | 7 (≈ 2.37 µg/mL) | 91 (≈ 30.8 µg/mL) | –
27 | CC(CC1CCCO1)NCc1ccccc1 (stereo not shown) [B20] | > 150 | > 150 | > 150 | > 150 | – | – | –
28 | c1ccc(CNC2CCC2c2ccccc2)cc1 (stereo not shown) [B176] | > 150 | > 300 | > 300 | > 300 | – | – | –
29 | CCC(CNCc1ccccc1)N1CCc2ccccc2C1 (stereo not shown) [B131] | > 150 | > 150 | > 150 | > 150 | – | – | –
30 | c1ccc(CNCC2CC23CCCc2ccccc23)cc1 (stereo not shown) [B107] | > 150 | > 150 | > 150 | > 150 | – | – | –
31 | CC(CC1CCCCC1)NCc1ccccc1OC(F)F (stereo not shown) [B291] | > 150 | > 150 | – | – | 12 (≈ 3.57 µg/mL) | 91 (≈ 27.1 µg/mL) | –
32 | CC(CC1CCCCC1)NCc1ccccc1OCCOCC(F)(F)C(F)(F)F (stereo not shown) [B262] | 55 (≈ 23.3 µg/mL) | 91 (≈ 38.5 µg/mL) | – | – | 12 (≈ 5.08 µg/mL) | 150 (≈ 63.5 µg/mL) | –
33 | CC(CC1CCC1)NCc1ccccc1 (stereo not shown) [B33] | – | – | > 150 | > 150 | – | – | MIC (H37RvMA; [7]): > 150 µM; MIC (A. baumannii; [8]): > 150 µM
34 | CC(NCc1ccccc1)C1[C@H]2C[C@@H]3C[C@@H](C[C@H]1C3)C2 (stereo partly shown) [B191] | > 150 | 300 (≈ 80.8 µg/mL) | 300 (≈ 80.8 µg/mL) | > 300 | – | – | –
35 | CC(CC1CCCCC1)NCc1ccccc1OCc1ccccc1C(C)C (stereo not shown) [B458, 1-cyclohexyl-N-(2-((2-isopropylbenzyl)oxy)benzyl)propan-2-amine] | 10 (≈ 3.8 µg/mL) | 20 (≈ 7.59 µg/mL) | 4 (≈ 1.52 µg/mL) | > 150 | – | – | –
36 | CC(CC1CCCCC1)NCc1ccccc1NCc1ccccc1F (stereo not shown) [B397, 2-(((1-cyclohexylpropan-2-yl)amino)methyl)-N-(2-fluorobenzyl)aniline dihydrochloride] | 12.2 | > 150 | – | – | 5 | > 150 | –
37 | COC(=O)CCCOc1ccccc1CNC(C)CC1CCCCC1 (stereo not shown) [B276] | > 150 | > 150 | – | – | 4 (≈ 1.39 µg/mL) | > 150 | –
38 | CC(CC1CCCCC1)NCc1ccccc1OCC(N)=O (stereo not shown) [B338] | > 150 | > 150 | – | – | 12 (≈ 3.65 µg/mL) | 91 (≈ 27.7 µg/mL) | –
39 | C[C@@H](Cc1ccccc1)NCc1ccccc1 [B217] | – | – | – | – | > 300 | > 300 | MIC (H37RvMA; [7]): > 150 µM; MIC (A. baumannii; [8]): > 300 µM
40 | CC(CC1CCCCC1)NCc1ccccc1CS(=O)(=O)N1CCN(C)CC1 (stereo not shown) [B439, 1-cyclohexyl-N-(2-(((4-methylpiperazin-1-yl)sulfonyl)methyl)benzyl)propan-2-amine] | > 150 | 150 (≈ 61.1 µg/mL) | 12 (≈ 4.89 µg/mL) | 91 (≈ 37.1 µg/mL) | – | – | –
